Source: patent publication US20240385200A1, “COMPOSITIONS AND METHODS OF DETERMINING PH AND POTASSIUM CONCENTRATION IN SAMPLES” (The University of Chicago, priority 2023, published 2024)

Tested on: TGN-resident K^+ channels
Settings: UT HEK 293T cells; TEA 10 mM, 10 min; resting ~102 mM
Method: EE and TGN pH and [K^+] measurements were carried out using pHlicKer^EE/TGN in HEK 293T cells transfected with hMSR1 and scFv-furin respectively. For EEs, HEK 293T cells were pulsed with 250 nM pHlicKer^EE for 10 min and chased for 10 min. For TGN, HEK 293T cells were pulsed with 250 nM pHlicKer^TGN for 90 min and chased for 90 min. Cells were washed with 1×PBS three times and then imaged. For recycling endosomes, HEK 293T cells were pulsed with 250 nM pHlicKer^RE for 15 min and chased for 30 min. Cells were washed with 1×PBS three times and then imaged using a widefield microscope.
Calculating pH-corrected [K^+] in early endosomes, trans-Golgi network, and recycling endosomes. To correct for pH and obtain K^+ values, the Kd of pHlicKer in single endosomes was calculated based on the Kd calibration plot versus pH. The pH of the organelle was measured from the D/A values calibrated across pH 5.5-7.0. Donor (D) and acceptor (A) images were background subtracted by drawing a region of interest outside the cells. The D image was duplicated, and a threshold was set to create a binary mask. Background-subtracted D and A images were then multiplied with the binary mask to get processed D and A images.

CC[N+](CC)(CC)CC.[Cl-] [TEA, tetraethyl ammonium chloride]
[K+]TGN: ~73 mM
